Laboratory results: ChEMBL document CHEMBL1126357, “Synthesis of sodium salt of ortho-(difluoromethyl)phenyl--ketoside of N-acetylneuraminic acid : a mechanism-based inhibitor of Clostridium perfringens neuraminidase” (Bioorg Med Chem Lett, 1992)
pKi: −log10 of the molar value.

Assay: Ki apparent against Clostridium perfringens neuraminidase was determined
Details: read-out: Ki app

CC(=O)NC1C(O)CC(Oc2ccccc2C(F)F)(C(=O)O)OC1[C@H](O)[C@H](O)CO (stereo partly specified)
pKi: 3.82
